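Following 48 hours of exposure in 96-well plates, responses at five concentrations were used to interpolate endpoints linearly. GI50 marks 50% less growth.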 The source made the active and inactive calls. No stated cut-off is given here; in the data, active = GI50 up to about 1.1 µM and inactive = higher.
How the values were obtained:
Test in all cases: inhibition of tumour cell growth, NCI panel, 48 h
A498 = tested on: A498
A549 = tested on: A549
ACHN = tested on: ACHN
CAKI-1 = tested on: CAKI-1
HCT-15 = tested on: HCT-15
HT-29 = tested on: HT-29
MDA-N = tested on: MDA-N
NCI-H226 = tested on: NCI-H226
NCI-H23 = tested on: NCI-H23
NCI/ADR-RES = tested on: NCI/ADR-RES
OVCAR-5 = tested on: OVCAR-5
OVCAR-8 = tested on: OVCAR-8
PC-3 = tested on: PC-3
RPMI-8226 = tested on: RPMI-8226
SK-MEL-2 = tested on: SK-MEL-2
SK-MEL-5 = tested on: SK-MEL-5
SK-OV-3 = tested on: SK-OV-3
SNB-19 = tested on: SNB-19
UACC-257 = tested on: UACC-257
UACC-62 = tested on: UACC-62

| Compound | GI50 (A498) | GI50 (A549) | GI50 (ACHN) | GI50 (CAKI-1) | GI50 (HCT-15) | GI50 (HT-29) | GI50 (MDA-N) | GI50 (NCI-H226) | GI50 (NCI-H23) | GI50 (NCI/ADR-RES) | GI50 (OVCAR-5) | GI50 (OVCAR-8) | GI50 (PC-3) | GI50 (RPMI-8226) | GI50 (SK-MEL-2) | GI50 (SK-MEL-5) | GI50 (SK-OV-3) | GI50 (SNB-19) | GI50 (UACC-257) | GI50 (UACC-62) |
| --- | --- | --- | --- | --- | --- | --- | --- | --- | --- | --- | --- | --- | --- | --- | --- | --- | --- | --- | --- | --- |
| Cc1nn(-c2ccccc2)c(C)c1/C=N/NC(=O)c1sc(=S)n(-c2ccc(Cl)cc2)c1N | 6.18 µM (inactive) | 6.28 µM (inactive) | 4.18 µM (inactive) | 2.76 µM (inactive) | 6.56 µM | 5.05 µM (inactive) | 11.5 µM (inactive) | 34.5 µM (inactive) | 18.9 µM (inactive) | 6.21 µM (inactive) | 6.44 µM (inactive) | 32.3 µM (inactive) | 4.07 µM (inactive) | 2.67 µM (inactive) | 17.3 µM (inactive) | 4.03 µM (inactive) | 3.87 µM (inactive) | > 100 µM (inactive) | 14.4 µM (inactive) | 5.98 µM (inactive) |
| COC(=O)C1=COC(OC2OC(CO)C(O)C(O)C2O)C2C3CN4CCc5c([nH]c6ccccc56)C4(CC12)O3 (stereo not given) | > 100 µM (inactive) | > 100 µM (inactive) | > 100 µM (inactive) | < 0.01 µM (active) | > 100 µM | > 100 µM (inactive) | > 100 µM (inactive) | > 100 µM (inactive) | > 100 µM (inactive) | > 100 µM (inactive) | > 100 µM (inactive) | > 100 µM (inactive) | > 100 µM (inactive) | > 100 µM (inactive) | > 100 µM (inactive) | > 100 µM (inactive) | > 100 µM (inactive) | > 100 µM (inactive) | > 100 µM (inactive) | > 100 µM (inactive) |

From ChEMBL document CHEMBL1201862, “PubChem BioAssay data set” (2004)
